# Assay results from patent publication US11919905B2, “Substituted benzo[f]imidazo[1,2-a][1,4]diazepines as anesthetics” (HANGZHOU ADAMERCK PHARMLABS INC., priority 2017, dated 2024).
# What was measured:
# ICR mice [1] = experiment: Disappearance of righting reflex in mice induced by drugs (single i.v. bolus); assay type: in vivo; conditions: 100 mg/kg single bolus via tail vein, male ICR mice
# Experimental: After ICR mice (male, 18-25 g) were fast injected with the same dose (100 mg/kg) of the test drug in a single bolus via the tail vein, the incubation period and the duration of disappearance of the righting reflex in mice were recorded. Wherein, the incubation period refers to the time from the start of administration to the disappearance of the animal's righting reflex, and the duration refers to the time from the disappearance of the righting reflex to the recovery.
# ICR mice [2] = experiment: Effective dose and lethal dose of intravenous administration in mice; assay type: in vivo; conditions: single bolus via tail vein, male ICR mice; for minimal effective dose: Mus musculus, iv, read-out: Effective dose (lowest dose causing the righting reflex to disappear)
# Experimental: ICR mice (males, 18-25 g) were randomly grouped and were fast given a single bolus of different doses of test drug via the tail vein, and the lowest dose causing the righting reflex to disappear (effective dose) and the dose causing animal death (lethal dose) were recorded, and the treatment windows (lethal dose/effective dose) were calculated.
SMILES,Duration (time from disappearance of righting reflex to recovery) (ICR mice [1]) [min],Incubation period (time from start of administration to disappearance of righting reflex) (ICR mice [1]) [min],minimal effective dose (ICR mice [2]) [mg/kg],Lethal dose (dose causing animal death) (ICR mice [2]) [mg/kg],Treatment window (lethal dose/effective dose) (ICR mice [2])
COC(=O)CC[C@@H]1N=C(c2ccccn2)c2cc(F)c(C)cc2-n2c(C)cnc21.O=S(=O)(O)c1ccccc1 [Compound 1-1],7.00,0.35,60,320,5.3
COC(=O)CC[C@@H]1N=C(c2ccccn2)c2cc(F)c(C)cc2-n2c(C)cnc21.Cl [Compound 1-3],7.20,0.30,60,280,4.67
COC(=O)CC[C@@H]1N=C(c2cccnc2)c2cc(F)c(C)cc2-n2c(C)cnc21.Cc1ccc(S(=O)(=O)O)cc1 [Compound 1-4],9.32,0.37,80,280,3.5
COC(=O)CC[C@@H]1N=C(c2ccncc2)c2cc(F)c(C)cc2-n2c(C)cnc21.Cc1ccc(S(=O)(=O)O)cc1 [Compound 1-5],8.21,0.40,60,320,5.3
COC(=O)CC[C@@H]1N=C(c2ccccn2)c2cc(Br)c(C)cc2-n2c(C)cnc21.Cc1ccc(S(=O)(=O)O)cc1 [Compound 1-6],7.98,0.47,100,380,3.8
COC(=O)CC[C@@H]1N=C(c2ccccn2)c2cc([N+](=O)[O-])c(C)cc2-n2c(C)cnc21.Cc1ccc(S(=O)(=O)O)cc1 [Compound 1-7],8.39,0.60,40,240,6
COC(=O)CC[C@@H]1N=C(c2ccccn2)c2cc(C(F)(F)F)c(C)cc2-n2c(C)cnc21.Cc1ccc(S(=O)(=O)O)cc1 [Compound 1-8],8.60,0.55,40,260,6.5
COC(=O)CC[C@@H]1N=C(c2ccccn2)c2cc(OC)c(C)cc2-n2c(C)cnc21.Cc1ccc(S(=O)(=O)O)cc1 [Compound 1-9],8.77,0.63,60,260,4.3
COC(=O)CC[C@@H]1N=C(c2ccccn2)c2cc(OC)c(OC)cc2-n2c(C)cnc21.Cc1ccc(S(=O)(=O)O)cc1 [Compound 1-10],7.86,0.48,80,300,3.75
COC(=O)CC[C@@H]1N=C(c2ccccn2)c2cc(F)c(F)cc2-n2c(C)cnc21.Cc1ccc(S(=O)(=O)O)cc1 [Compound 1-11],7.28,0.53,80,320,4
COC(=O)CC[C@@H]1N=C(c2ccccn2)c2cc(Cl)c(Cl)cc2-n2c(C)cnc21.Cc1ccc(S(=O)(=O)O)cc1 [Compound 1-12],8.35,0.42,60,300,5
COC(=O)CC[C@@H]1N=C(c2ccccn2)c2cc(C)c(C)cc2-n2c(C)cnc21.Cc1ccc(S(=O)(=O)O)cc1 [Compound 1-13],–,–,80,320,4
COC(=O)CC[C@@H]1N=C(c2cccnc2)c2cc(F)c(C(F)(F)F)cc2-n2c(C)cnc21.Cc1ccc(S(=O)(=O)O)cc1 [Compound 1-14],6.30,0.58,100,360,3.6
COC(=O)CC[C@@H]1N=C(c2ccccn2)c2cc(OC)c(F)cc2-n2c(C)cnc21.Cc1ccc(S(=O)(=O)O)cc1 [Compound 1-15],9.02,0.54,60,320,5.3
CCOC(=O)CC[C@@H]1N=C(c2cccnc2)c2cc(C)c(F)cc2-n2c(C)cnc21.Cc1ccc(S(=O)(=O)O)cc1 [Compound 1-16],9.35,0.86,40,280,7
CCOC(=O)CC[C@@H]1N=C(c2ccccn2)c2cc(CC)c(OC)cc2-n2c(C)cnc21.Cc1ccc(S(=O)(=O)O)cc1 [Compound 1-17],7.24,0.75,80,360,4.5
